# Earlier results, collected in patent US12357624B2, “Low dose pridopidine for Parkinson's Disease and other diseases associated with parkinsonism” (PRILENIA NEUROTHERAPEUTICS LTD., priority 2019, dated 2025).
# Test system: B104 neuroblastoma cell line
# Conditions: NE100 1 μM co-incubated with pridopidine; cited from earlier work
smiles,measurement,value
"CCCN(CCC)CCc1ccc(OC)c(OCCc2ccccc2)c1 [NE100, reference compound]",BDNF secretion,BDNF secretion was inhibited
